Data: ChEMBL document CHEMBL1126775, “A pharmacological, crystallographic, and quantum chemical study of new inotropic agents” (J Med Chem, 1993)
“And” between values parts separate entries of the source, which are not always exact repeats. Identical values can stand only once.

Legend:
Cavia porcellus [1] = species on record: Cavia porcellus; assay: Effect on contractile force of spontaneously beating atria from reserpine treated guinea pigs at the concentration of 10 e-3 M; format: functional
Cavia porcellus [2] = species on record: Cavia porcellus; assay: Effect on contractile force of spontaneously beating atria from reserpine treated guinea pigs at the concentration of 10 e-5 M; format: functional
Cavia porcellus [3] = species on record: Cavia porcellus; assay: Effect on contractile force of spontaneously beating atria from reserpine treated guinea pigs at the concentration of 2 x 10 e-3 M (negative ionotropic effect); format: functional
Cavia porcellus [4] = species on record: Cavia porcellus; assay: Effect on contractile force of spontaneously beating atria from reserpine treated guinea pigs at the concentration of 5x 10 e-4 M (negative ionotropic effect); format: functional
Cavia porcellus [5] = species on record: Cavia porcellus; assay: Effect on contractile force of spontaneously beating atria from reserpine treated guinea pigs at the concentration of 5x 10 e-5 M; format: functional
Cavia porcellus [6] = species on record: Cavia porcellus; assay: Effect on frequency rate of spontaneously beating atria from reserpine treated guinea pigs at the concentration of 10 e-3 M; format: functional
Cavia porcellus [7] = species on record: Cavia porcellus; assay: Effect on frequency rate of spontaneously beating atria from reserpine treated guinea pigs at the concentration of 10 e-4 M; format: functional
Cavia porcellus [8] = species on record: Cavia porcellus; assay: Effect on frequency rate of spontaneously beating atria from reserpine treated guinea pigs at the concentration of 10 e-5 M; format: functional
Cavia porcellus [9] = species on record: Cavia porcellus; assay: Effect on frequency rate of spontaneously beating atria from reserpine treated guinea pigs at the concentration of 2 x 10 e-3 M; format: functional
Cavia porcellus [10] = species on record: Cavia porcellus; assay: Effect on frequency rate of spontaneously beating atria from reserpine treated guinea pigs at the concentration of 5 x 10 e-4 M; format: functional
Cavia porcellus [11] = species on record: Cavia porcellus; assay: Effect on contractile force of spontaneously beating atria from reserpine treated guinea pigs at the concentration of 10 e-4 M (negative ionotropic effect); format: functional
Cavia porcellus [12] = species on record: Cavia porcellus; assay: Effect on contractile force of spontaneously beating atria from reserpine treated guinea pigs at the concentration of 10 e-4 M; format: functional
Cavia porcellus [13] = species on record: Cavia porcellus; assay: Effect on contractile force of spontaneously beating atria from reserpine treated guinea pigs at the concentration of 2 x 10 e-3 M; format: functional
Cavia porcellus [14] = species on record: Cavia porcellus; assay: Effect on contractile force of spontaneously beating atria from reserpine treated guinea pigs at the concentration of 5x 10 e-4 M; format: functional
Cavia porcellus [15] = species on record: Cavia porcellus; assay: Effect on contractile force of spontaneously beating atria from reserpine treated guinea pigs at the concentration of 10 e-3 M (negative ionotropic effect); format: functional
Cavia porcellus [16] = species on record: Cavia porcellus; assay: Effect on contractile force of spontaneously beating atria from reserpine treated guinea pigs at the concentration of 5x 10 e-5 M (negative ionotropic effect); format: functional
Cavia porcellus [17] = species on record: Cavia porcellus; assay: Effect on frequency rate of spontaneously beating atria from reserpine treated guinea pigs at the concentration of 10 e-3 M (negative chronotropic ionotropic effect); format: functional
Cavia porcellus [18] = species on record: Cavia porcellus; assay: Effect on frequency rate of spontaneously beating atria from reserpine treated guinea pigs at the concentration of 10 e-4 M (negative chronotropic ionotropic effect); format: functional
Cavia porcellus [19] = species on record: Cavia porcellus; assay: Effect on frequency rate of spontaneously beating atria from reserpine treated guinea pigs at the concentration of 2 x 10 e-3 M (negative chronotropic ionotropic effect); format: functional
Cavia porcellus [20] = species on record: Cavia porcellus; assay: Effect on frequency rate of spontaneously beating atria from reserpine treated guinea pigs at the concentration of 5 x 10 e-4 M (negative chronotropic ionotropic effect); format: functional
Cavia porcellus [21] = species on record: Cavia porcellus; assay: Effect on frequency rate of spontaneously beating atria from reserpine treated guinea pigs at the concentration of 5 x 10 e-5 M (negative chronotropic ionotropic effect)

Row | Compound | Increase (Cavia porcellus [1]) [%] | Increase (Cavia porcellus [2]) [%] | Increase (Cavia porcellus [3]) [%] | Increase (Cavia porcellus [4]) [%] | Increase (Cavia porcellus [5]) [%] | Increase (Cavia porcellus [6]) [%] | Increase (Cavia porcellus [7]) [%] | Increase (Cavia porcellus [8]) | Increase (Cavia porcellus [9]) [%] | Increase (Cavia porcellus [10]) [%] | Increase (Cavia porcellus [11]) [%] | Increase (Cavia porcellus [12]) [%] | Increase (Cavia porcellus [13]) [%] | Increase (Cavia porcellus [14]) [%] | Increase (Cavia porcellus [15]) [%] | Increase (Cavia porcellus [17]) [%] | Increase (Cavia porcellus [18]) [%] | Increase (Cavia porcellus [19]) [%] | Increase (Cavia porcellus [20]) [%] | Increase (Cavia porcellus [21]) | further results
1 | CC(C)C(=O)c1cc(C(=O)O)c(O)nc1C(C)C | -82.26 | 3.46 | -99.99 | -49.63 | 3.21 | 16.19 | 6.01 | 0.58% and 0.75% | 11.35 | 23.17 | -8.88 | – | – | – | – | – | – | – | – | – | –
2 | CC1CC(=O)c2cc(C(=O)O)c(O)nc2C1 (stereo not drawn) | 8.37 | 2.55 | – | – | 3.78 | 7.38 | 3.58 | 1.5% and 2.78% | 10.36 | 6.53 | – | 4.57 | 11.38 | 8.53 | – | – | – | – | – | – | –
3 | O=C(O)c1cc(C(=O)c2ccccc2)c(-c2ccccc2)nc1O | – | 2.45 | -100 | -61.56 | – | – | – | – | – | – | -10.02 | – | – | – | -90.39 | -25.3 | -5.31 | -35.93 | -14.43 | -2.23% and -3.38% | Increase (Cavia porcellus [16]): -1.52%
4 | CC(C)C(=O)c1ccc(O)nc1C(C)C | – | 5.34 | -44.47 | -9.42 | 11.69 | 26.33 | – | – | 32.13 | 20.8 | – | 16.38 | – | – | -26.37 | – | -0.99 | – | – | -3.28% and -5.14% | –
5 | CC1(C)CC(=O)c2cc(C(=O)O)c(O)nc2C1 | – | 0.51 | -4.46 | – | 2.7 | – | 0.88 | 0.41% and 1.8% | – | – | – | 1.66 | – | -0.69 | -3.94 | -2.94 | – | -4.76 | -0.69 | – | –
6 | CC(C)C(=O)c1cc(C#N)c(O)nc1C(C)C | – | 8.22 | -86.43 | -34.43 | 11.62 | 22.83 | 9.64 | 2.33% and 5.14% | 16.27 | 18.85 | – | 1.42 | – | – | -67.64 | – | – | – | – | – | –
7 | CC1(C)CC(=O)c2ccc(O)nc2C1 | 2.45 | 0 | – | -5.5 | – | 1.06 | 1.05 | 0% and 1.27% | 2.65 | 1.09 | -3.46 | – | 4.71 | – | – | – | – | – | – | – | Increase (Cavia porcellus [16]): -3.45%
8 | N#Cc1cc(C(=O)c2ccccc2)c(-c2ccccc2)nc1O | – | 1.22 | -39.43 | -32.19 | – | – | – | 0.5% | – | – | -22.26 | – | – | – | -35.54 | -8.29 | -3.36 | -9.96 | -6.26 | -3.01% | Increase (Cavia porcellus [16]): -6.67%
9 | CC(=O)c1ccc(O)nc1C | 10.27 | 5.35 | – | – | 5.84 | 10.85 | 4.7 | 1.79% and 4.14% | 14.19 | 10.85 | – | 10.35 | 10.35 | 9.72 | – | – | – | – | – | – | –
10 | CC(=O)c1cc(C(=O)O)c(O)nc1C | 11.48 | 2.63 | – | – | 5.72 | – | – | – | – | – | – | 5.46 | 10.83 | 9.55 | – | -1.43 | -5.67 | -1.39 | -2.31 | -4.2% and -4.31% | –
11 | N#Cc1cc2c(nc1O)CCCC2=O | 23.3 | 2.59 | – | – | 7.87 | – | – | 3.02% | – | – | – | 16.12 | 13.01 | 25.67 | – | -0.57 | -6.06 | -0.79 | -3.85 | -3.08% | –
12 | O=C1CCCc2nc(O)ccc21 | 25.64 | 0.48 | – | – | 7.65 | 15.52 | 6.26 | 0% | 18.17 | 12.44 | – | 14.7 | 26.56 | 23.87 | – | – | – | – | – | – | –
13 | O=C(O)c1cc2c(nc1O)CC(c1ccccc1)CC2=O (stereo not drawn) | – | 1.53 | – | -7.59 | 2.21 | – | – | 0.58% and 1.22% | – | – | -1.21 | – | -27.77 | – | -23.77 | -13.88 | -1.21 | -27.07 | -4.58 | – | –
14 | O=C1CC(c2ccccc2)Cc2nc(O)ccc21 (stereo not drawn) | 1.73 | 2.28 | – | – | 4.52 | 12.61 | 5.61 | 2.19% | 14.52 | 8.85 | – | 1.2 | 3.44 | 1.46 | – | – | – | – | – | -3.42% | –
15 | CC(C)(C)C(=O)c1cc(C#N)c(O)nc1C(C)(C)C | – | 7.34 | -89.11 | -66.56 | 11.34 | – | – | 2.98% and 0.28% | – | – | -16.07 | – | – | – | -81.39 | -14.41 | -0.44 | -15.71 | -6.73 | – | –
